Read-outs that look alike come from different tables or passages of the source.

The subject of one assay is Caspase3 in Hela S100. Nature of the assay: In-vitro caspase-3 activation assay in Hela S100 extract. Type of assay: biochemical. Particulars: 100 nM compound, Hela S100, 1 mM dATP; slope versus control (compound 1 = Caspase std.). Here is the method: Caspase3 in most cell extracts can be activated by the addition of 1 mM dATP through the mitochondria caspase pathway. […] Taking advantage of this feature, we use 100 nM of synthetic Smac mimetic compound to test its ability to eliminate IAPB in the Hela S100 and fully induce Caspase3 activity. The In Vitro Caspase3 assay is carried out at 30° C., incubating 100 nM compounds with 30 ug of Hela S100, 1 mM dATP, 10 uM Caspase3 fluorogenic substrate (Caspase3 Substrate II, Fluorogenic, #235425 from Calbiochem). The readout is caspase-3 activity represented by relative fluorogenic unit, which is recorded kinetically. The slope in linear region of the curve for each compound is calculated.
The ratio of each synthetic compound's slope versus the slope of control reflects in vitro caspase-3 activation ability of compounds.

For assay [1], the target named is T1, truncated XIAP containing only BIR1, BIR2, and BIR3 domains (Homo sapiens, UniProt P98170).
T1 construct: truncated XIAP containing only BIR1, BIR2, and BIR3 domains
Put plainly: Fluorescent polarization assay (Bir binding). Particulars: competition with 2 nM fluorescein labeled AVPI peptide, room temperature, 1 hour. Here is the method:
Increasing concentrations of Smac compounds are incubated with 2 nM of labeled peptide (fluorescein labeled 10 mer peptide with AVPI 4 amino acids at its N terminus-Alexa Fluor 488) and truncated XIAP containing only BIR1, BIR2, and BIR3 domains at room temperature for 1 hour. Fluorescence reading, indicative of the bound portion of the labeled peptide, is measured in milipolarization units (mP). The more compound added, less fluorescein labeled peptide bind to the protein due to the competitive binding and less fluorescence signal is released.
Based on this principle, we obtain the Ki value that evaluates compound's binding affinity.

The test system of another assay is HCC461 cells. Nature of the assay: Cell viability assay in HCC461 cells (WST-1). Type of assay: cell-based. The settings on record: read-out: HCC461 cell. How it is done: HCC461 cells plated in 96 well plates at 5×10^4/ml cell density are treated with 50× synthetic Smac mimetic compounds (final concentration range between 30 uM and 0.001 uM). After 48 hrs incubation at 37° C. and 5% CO2, viability of the cells are measured using Cell Proliferation Reagent WST-1 assay kit (Roche Cat #11 644 807 001).
The tetrazolium salts are cleaved to formazan by cellular enzymes. An expansion in the number of viable cells results in an increase in the overall activity of mitochondrial dehydrogenases in the samples. This augmentation in the enzyme activity leads to an increase in the amount of formazan dye formed, which directly correlates to the number of metabolically active cells in the culture. Quantification of the formazan dye produced by metabolically active cells by using a microplate (ELISA) reader at 420-480 nm.
For orientation: Tetrazolium dyes change colour on reduction, which living cells bring about.

The test system of the next assay is Wap-ras tumors. Nature of the assay: In vivo therapy in the WAP-RAS transgenic model. The arrangement: species or system mice. The settings on record: mimetic 20 mpk po; Paclitaxel 5 mpk ip.
Setting [2] is: HCC461, 48 hrs incubation, WST-1 viability.

T1 sequence (P98170 1-356 limits assumed): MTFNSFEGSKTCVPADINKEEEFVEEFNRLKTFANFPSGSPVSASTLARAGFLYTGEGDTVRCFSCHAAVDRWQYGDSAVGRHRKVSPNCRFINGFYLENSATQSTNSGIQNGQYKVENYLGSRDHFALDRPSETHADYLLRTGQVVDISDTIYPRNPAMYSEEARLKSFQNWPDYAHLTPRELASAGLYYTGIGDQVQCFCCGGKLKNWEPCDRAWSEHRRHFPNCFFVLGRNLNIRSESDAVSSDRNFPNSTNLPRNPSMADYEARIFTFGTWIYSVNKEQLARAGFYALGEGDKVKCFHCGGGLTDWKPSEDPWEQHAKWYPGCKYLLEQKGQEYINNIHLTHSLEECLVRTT
Procedure for Wap-ras tumors: Mimetic and Paclitaxel combination efficacy is also evaluated in the Wap-ras transgenic model.
Mimetics (20 mpk/dosing po) are dissolved in 20% hydroxyl-propyl-betacyclodexatrin (Vehicle I). 0.2 ml of mimetic solution is the oral dosing volume. Paclitaxel (5 mpk/dosing ip) is dissolved in a diluted ethanol/cremophor EL solution (vehicle II) and the i.p. dosing volume for paclitaxel is 0.1 ml.
The mice are weighed, randomized, and ear-marked on Day 0. Mimetic treatment and Vehicle I treatment is begun on Day 1 and continued every 12 hours until Day 21. Paclitaxel and Vehicle II treatments are started on Day 4 and continued daily on Day 5, 6, and 7.

Compound `CN[C@@H](C)C(=O)N[C@H](C(=O)N1CCC[C@H]1C(=O)N[C@@H]1CCCc2ccccc21)[C@@H](C)OCC#CC=CCO[C@H](C)[C@H](NC(=O)[C@H](C)NC)C(=O)N1CCC[C@H]1C(=O)N[C@@H]1CCCc2ccccc21.Cl.Cl` [Compound 11] gave a Caspase % in the assay with Caspase3 in Hela S100 of 94%. The Bir binding in assay [1] was found to be 0.172 µM. Also, the IC50 in the assay with HCC461 cells (setting [2]) came out at 12 nM.
Regarding `CNC(C)C(=O)N[C@@H](CC#CC#CC[C@H](NC(=O)[C@H](C)NC)C(=O)N1CCC[C@H]1C(=O)NC(c1ccccc1)c1ccccc1)C(=O)N1CCC[C@H]1C(=O)NC(c1ccccc1)c1ccccc1` (stereo partly shown) [Compound 3], the Caspase % in the assay with Caspase3 in Hela S100 came to 48%. In assay [1], the Bir binding is 0.12 µM. In addition, the IC50 with HCC461 cells (setting [2]) came to 26 nM.
On to `CN[C@@H](C)C(=O)N[C@H](C(=O)N1CCC[C@H]1C(=O)N[C@@H]1CCCc2ccccc21)[C@@H](C)OCc1cn(CCn2cc(CO[C@H](C)[C@H](NC(=O)[C@H](C)NC)C(=O)N3CCC[C@H]3C(=O)N[C@@H]3CCCc4ccccc43)nn2)nn1.Cl.Cl` [Compound 22], for which the Caspase % with Caspase3 in Hela S100 is 106%. In assay [1], this compound registered a Bir binding of 0.13 µM. Also, in the assay with HCC461 cells (setting [2]), the IC50 is 810 nM.
Consider `CN[C@@H](C)C(=O)N[C@@H](Cc1ccc(OC/C=C\COc2ccc(C[C@H](NC(=O)[C@H](C)NC)C(=O)N3CCCC3C(=O)N[C@@H]3CCCc4ccccc43)cc2)cc1)C(=O)N1CCCC1C(=O)N[C@@H]1CCCc2ccccc21.Cl.Cl` (stereo partly shown) [Compound 44], for which, in the assay with Caspase3 in Hela S100, the Caspase % amounted to 104%. For the same compound, the Bir binding in assay [1] was 0.18 µM. Further, the IC50 with HCC461 cells (setting [2]) was determined as 3 nM.
`C=C(C#CCO[C@H](C)[C@H](NC(=O)[C@H](C)NC)C(=O)N1CCC[C@H]1C(=O)N[C@@H]1CCCc2ccccc21)CO[C@H](C)[C@H](NC(=O)[C@H](C)NC)C(=O)N1CCC[C@H]1C(=O)N[C@@H]1CCCc2ccccc21.Cl.Cl` [Compound 42] yielded a Caspase % with Caspase3 in Hela S100 of 109%. Moreover, the Bir binding in assay [1] worked out at 0.2 µM. Also, the IC50 in the assay with HCC461 cells (setting [2]) worked out at 240 nM.
Take `CN[C@@H](C)C(=O)N[C@@H](CCCCNC(=O)c1ccc(C(=O)NCCCC[C@H](NC(=O)[C@H](C)NC)C(=O)N2CCC[C@H]2C(=O)N[C@@H]2CCCc3ccccc32)cc1)C(=O)N1CCC[C@H]1C(=O)N[C@@H]1CCCc2ccccc21.Cl.Cl` [Compound 49]: the Caspase % in the assay with Caspase3 in Hela S100 was 113%. The same compound gave a Bir binding in assay [1] of 0.19 µM. Besides, the IC50 in the assay on HCC461 cells (setting [2]) stood at 20 nM.
The compound `CN[C@@H](C)C(=O)N[C@@H](Cc1cn(CCn2cc(C[C@H](NC(=O)[C@H](C)NC)C(=O)N3CCC[C@H]3C(=O)N[C@@H]3CCCc4ccccc43)nn2)nn1)C(=O)N1CCC[C@H]1C(=O)N[C@@H]1CCCc2ccccc21.Cl.Cl` [Compound 20] gave a Caspase % in the assay on Caspase3 in Hela S100 of 99%. In assay [1], this compound had a Bir binding of 0.18 µM. For the same compound, in the assay on HCC461 cells (setting [2]), the IC50 was found to be 520 nM.
As to `CN[C@@H](C)C(=O)N[C@@H](Cc1nnn2c1-c1c(C[C@H](NC(=O)[C@H](C)NC)C(=O)N3CCC[C@H]3C(=O)N[C@@H]3CCCc4ccccc43)nnn1CCC2)C(=O)N1CCCC1C(=O)N[C@@H]1CCCc2ccccc21.Cl.Cl` (stereo partly shown) [Compound 18], in the assay on Caspase3 in Hela S100, the Caspase % came out at 88%. In assay [1], this compound yielded a Bir binding of 0.176 µM. Besides, the IC50 in the assay on HCC461 cells (setting [2]) was found to be 760 nM.
For `CC[C@H](NC)C(=O)N[C@@H](CC#CC#CC[C@H](NC(=O)[C@H](C)NC)C(=O)N1CCC[C@H]1C(=O)N[C@@H]1CCCc2ccccc21)C(=O)N1CCC[C@H]1C(=O)N[C@@H]1CCCc2ccccc21.Cl.Cl` [Compound 16], in that order: 107%, 0.22 µM and 25 nM.
In the case of `CN[C@@H](C)C(=O)N[C@@H](CC#CC#CCO[C@H](C)[C@H](NC(=O)[C@H](C)NC)C(=O)N1CCCC1C(=O)N[C@@H]1CCCc2ccccc21)C(=O)N1CCCC1C(=O)N[C@@H]1CCCc2ccccc21.Cl.Cl` (stereo partly shown) [Compound 13], in the assay with Caspase3 in Hela S100, the Caspase % turned out to be 105%. The Bir binding in assay [1] amounted to 0.188 µM. Moreover, in the assay on HCC461 cells (setting [2]), the IC50 is 70 nM.
Turning to `CN[C@@H](C)C(=O)N[C@H](C(=O)N1CCC[C@H]1C(=O)N[C@@H]1CCCc2ccccc21)[C@@H](C)OCc1nnn2c1-c1c(CO[C@H](C)[C@H](NC(=O)[C@H](C)NC)C(=O)N3CCC[C@H]3C(=O)N[C@@H]3CCCc4ccccc43)nnn1CCC2.Cl.Cl` [Compound 19], the Caspase % with Caspase3 in Hela S100 came out at 98%. This compound also came in with a Bir binding in assay [1] of 0.14 µM. Moreover, the IC50 with HCC461 cells (setting [2]) came out at 240 nM.
Regarding `CN[C@@H](C)C(=O)N[C@@H](CC#Cc1ccc([C@H](NC(=O)[C@H](C)NC)C(=O)N2CCC[C@H]2C(=O)N[C@@H]2CCCc3ccccc32)cc1)C(=O)N1CCC[C@H]1C(=O)N[C@@H]1CCCc2ccccc21.Cl.Cl` [Compound 26], in the assay on Caspase3 in Hela S100, the Caspase % stood at 106%. The compound further showed a Bir binding in assay [1] of 0.235 µM. Moreover, the IC50 with HCC461 cells (setting [2]) is 100 nM.
`CN[C@@H](C)C(=O)N[C@@H](CCCCCC[C@H](NC(=O)[C@H](C)NC)C(=O)N1CCC[C@H]1C(=O)NC(C)c1ccccc1)C(=O)N1CCC[C@H]1C(=O)NC(C)c1ccccc1` (stereo partly shown) [Compound 8]: the Caspase % in the assay on Caspase3 in Hela S100 is 93%. The Bir binding in assay [1] is 0.27 µM. Moreover, in the assay on HCC461 cells (setting [2]), the IC50 came out at 70 nM.
For the compound `CC[C@H](NC)C(=O)N[C@H](C(=O)N1CCCC1)c1ccc(C#CCO[C@H](C)[C@H](NC(=O)[C@H](C)NC)C(=O)N2CCC[C@H]2C(=O)N[C@@H]2CCCc3ccccc32)cc1.Cl.Cl` [Compound 37], the Caspase % in the assay with Caspase3 in Hela S100 worked out at 59%. The compound also gave a Bir binding in assay [1] of 0.3 µM. In the assay on HCC461 cells (setting [2]), the IC50 was determined as 200 nM.
For `CN[C@@H](C)C(=O)N[C@@H](Cc1ccc(C#CC[C@H](NC(=O)[C@H](C)NC)C(=O)N2CCC[C@H]2C(=O)N[C@@H]2CCCc3ccccc32)cc1)C(=O)N1CCC[C@H]1C(=O)NC1CCCc2ccccc21.Cl` (stereo partly shown) [Compound 36], in that order: 98%, 0.19 µM and 50 nM.
On the same counts, the results for `CNC(C)C(=O)N[C@@H](CCCCCC[C@H](NC(=O)[C@H](C)NC)C(=O)N1CCC[C@H]1C(=O)NCc1ccccc1)C(=O)N1CCC[C@H]1C(=O)NCc1ccccc1` (stereo partly shown) [Compound 6] are 82%, 0.2 µM and 2100 nM.
As for `CN[C@@H](C)C(=O)N[C@@H](CCCCCC[C@H](NC(=O)[C@H](C)NC)C(=O)N1CCC[C@H]1C(=O)N[C@@H]1CCCc2ccccc21)C(=O)N1CCC[C@H]1C(=O)N[C@@H]1CCCc2ccccc21` [Compound 2], the Caspase % in the assay with Caspase3 in Hela S100 was 105%. Besides, the Bir binding in assay [1] worked out at 0.15 µM. The IC50 in the assay with HCC461 cells (HCC461, 48 h) was found to be 10 nM.
In the case of `CC[C@H](NC)C(=O)N[C@@H](CC#CC#CC[C@H](NC(=O)[C@H](CC)NC)C(=O)N1CCC[C@H]1C(=O)N[C@@H]1CCCc2ccccc21)C(=O)N1CCC[C@H]1C(=O)N[C@@H]1CCCc2ccccc21` [Compound 9], in the assay with Caspase3 in Hela S100, the Caspase % was 108%. The compound also registered a Bir binding in assay [1] of 0.196 µM. Further, the IC50 in the assay with HCC461 cells (setting [2]) was 9 nM.
`CN[C@@H](C)C(=O)N[C@@H](CC#CC#CC[C@H](NC(=O)[C@H](C)NC)C(=O)N1CCC[C@H]1C(=O)NC(C)c1ccccc1)C(=O)N1CCC[C@H]1C(=O)NC(C)c1ccccc1` (stereo partly shown) [Compound 7]: the Caspase % in the assay on Caspase3 in Hela S100 came to 101%. Also, the Bir binding in assay [1] is 0.144 µM. Further, the IC50 with HCC461 cells (setting [2]) worked out at 373 nM.
As for `CC(=O)O[C@H]1C(=O)[C@@]2(C)[C@H]([C@H](OC(=O)c3ccccc3)[C@]3(O)C[C@H](OC(=O)[C@H](O)[C@@H](NC(=O)c4ccccc4)c4ccccc4)C(C)=C1C3(C)C)[C@]1(OC(C)=O)CO[C@@H]1C[C@@H]2O` [Paclitaxel], the “tumor response to treatment, single agent” value with Wap-ras tumors is “do not respond”.
